Measurements reported in US3979515A, “Novel dibenzo(b,f)azepines as thymoanaleptics” (Roussel-UCLAF, priority 1969, dated 1976).

Assays:
[1] = solubility in water (product description); assay type: physicochemical; conditions: qualitative
[2] = system: eyelid ptosis caused by reserpine; test: eyelid ptosis test (antagonism of reserpine, anti-depressant activity); assay type: in vivo, rats; conditions: 1 h before reserpine 1 mg/kg i.p., read 4 h after reserpine, percent of controls receiving reserpine only
Description: The anti-depressant activity was determined by the eyelid ptosis test codified by Rubin, J. Pharm. Exp. Ther. Vol. 120 (1957), p. 125. […] The eyelid ptosis test is used as a quantitative evaluation of the animal's condition but the antagonism is equally exerted on all the neuro-depressive symptoms of reserpine: immobility, […], hypothermia,myosis, etc. […] The results of Table I are expressed as percent of ptosis compared to the controls receiving reserpine only.

[3] = acute toxicity determination; conditions: mouse, in vivo, ip; Rockland mice 18-22 g, intraperitoneal, observed for 7 days; read-out: LD50 (50% of animals died)

| solubility in water [1] | Structure (SMILES) | % of ptosis ([2]; 1 mg/kg i.p.) | % of ptosis ([2]; 2 mg/kg i.p.) | % of ptosis ([2]; 5 mg/kg i.p.) | % of ptosis ([2]; 10 mg/kg i.p.) | % of ptosis ([2]; 20 mg/kg i.p.) | LD50 at 168 h [3] |
| --- | --- | --- | --- | --- | --- | --- | --- |
| insoluble in water | CN(C)CCC1=Cc2ccccc2N(C)c2ccc(Cl)cc21 [8-chloro-5-methyl-10-(β-dimethylaminoethyl)-dibenzo(b,f)azepine] | – | – | – | – | – | – |
| slightly soluble in water | CNCCC1=Cc2ccccc2N(C)c2cc(Cl)ccc21 [fumarate of 7-chloro-5-methyl-10-(β-monomethylaminoethyl)-dibenzo (b,f) azepine] | – | – | – | – | – | – |
| insoluble in water | CN(C)CCC1=Cc2ccccc2N(C)c2cc(Cl)ccc21 [7-chloro-5-methyl-10-(β-dimethylaminoethyl)-dibenzo (b,f) azepine] | – | – | – | – | – | – |

| Structure (SMILES) | solubility in water [1] | % of ptosis ([2]; 1 mg/kg i.p.) | % of ptosis ([2]; 2 mg/kg i.p.) | % of ptosis ([2]; 5 mg/kg i.p.) | % of ptosis ([2]; 10 mg/kg i.p.) | % of ptosis ([2]; 20 mg/kg i.p.) | LD50 at 168 h [3] |
| --- | --- | --- | --- | --- | --- | --- | --- |
| CNCCC1=Cc2ccccc2N(C)c2ccccc21.Cl [5-methyl-10(β-monomethylaminoethyl)-dibenzo (b,f) azepine hydrochloride] | insoluble in ether and water | 100% | 72% | 50% | 33% | 11% | ~75 mg/kg |
| CN(C)CCC1=Cc2ccccc2N(C)c2ccccc21 [5-methyl-10-(β-dimethylaminoethyl)-dibenzo (b,f) azepine] | insoluble in water | – | 100% | 59% | 37% | 30% | ~50 mg/kg |
